Laboratory results taken from patent US20110275703A1, “SUBSTITUTED SPIROKETAL DERIVATIVES AND USE THEREOF AS THERAPEUTIC DRUG FOR DIABETES” (CHUGAI SEIYAKU KABUSHIKI KAISHA, priority 2007, published 2011).
Where two headings read alike, the source gives them in different places.

Tests used:
human SGLT2 = molecular target: T1, human SGLT2 (Homo sapiens, UniProt P31639); assay: Inhibitory activity against methyl-α-D-glucopyranoside uptake, CHO cells stably expressing human SGLT2; format: cell-based; conditions: inhibition of SGLT2, Table 2-1; read-out: IC50 value
T1 construct: expressed in transfected cells; host or cells: CHO-K1
T1 sequence (P31639 1-672): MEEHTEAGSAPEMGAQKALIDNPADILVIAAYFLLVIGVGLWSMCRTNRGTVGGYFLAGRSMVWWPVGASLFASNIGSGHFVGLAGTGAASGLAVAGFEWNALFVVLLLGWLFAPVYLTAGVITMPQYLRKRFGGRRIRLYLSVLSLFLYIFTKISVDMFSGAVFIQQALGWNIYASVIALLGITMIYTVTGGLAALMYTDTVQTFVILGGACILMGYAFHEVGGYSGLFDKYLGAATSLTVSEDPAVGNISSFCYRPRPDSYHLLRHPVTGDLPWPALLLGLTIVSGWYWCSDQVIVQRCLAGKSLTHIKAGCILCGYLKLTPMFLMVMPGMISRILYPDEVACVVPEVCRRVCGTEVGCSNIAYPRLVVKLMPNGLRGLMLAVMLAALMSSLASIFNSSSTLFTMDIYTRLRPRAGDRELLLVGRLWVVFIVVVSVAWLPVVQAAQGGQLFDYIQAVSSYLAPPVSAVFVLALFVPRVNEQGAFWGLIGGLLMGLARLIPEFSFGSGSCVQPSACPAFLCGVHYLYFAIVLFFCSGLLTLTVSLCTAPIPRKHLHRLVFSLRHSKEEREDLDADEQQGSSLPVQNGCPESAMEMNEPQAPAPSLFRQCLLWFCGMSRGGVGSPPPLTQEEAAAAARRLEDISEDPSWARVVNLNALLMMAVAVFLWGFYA
Description: Evaluation of inhibitory activity against methyl-α-D-glucopyranoside uptake of human Na^+-glucose cotransporter (SGLT1 and SGLT2)
2) Construction of Human SGLT2 Expression Vector
Human SGLT2 cDNA was amplified by PCR with a cDNA library derived from human kidney (Clontech) as a template, synthetic DNA primers and KOD+ DNA Polymerase. The amplified cDNA was inserted into pcRII-Topo vector by using a Topo TA Cloning Dual Promoter kit. E. coli competent cells (TPO10) were transformed with the plasmid vector, cultured in LB medium containing ampicillin (50 mg/L) to grow ampicillin-resistant clones. The plasmid vector containing human SGLT2 cDNA was purified from the clone in a standard manner. Human SGLT2 cDNA added restriction enzyme recognition sites (Xho I at 5′-end, Hind III at 3′-end) was amplified by PCR with the plasmid vector as a template, synthetic DNA primers containing an additional restriction enzyme recognition site and KOD+ DNA Polymerase. This amplified cDNA was digested with Xho I and Hind III, and ligated into expression vector pcDNA3.1(−) digested with Xho I and Hind III by using a Rapid DNA Ligation kit. E. coli competent cells (DH5α) were transformed with the ligated expression vector and grown in ampicillin-containing LB medium. Human SGLT2 expression vector was purified from the ampicillin-resistant clone in a standard manner.
3) Establishment of Cell Lines Stably Expressing Human SGLT1 or Human SGLT2
The human SGLT1 expression vector or the human SGLT2 expression vector was digested with the restriction enzyme Pvu I and transfected into CHO-Kl cells with FuGENE (Roche Diagonostics). After the transfection, the cells were cultured at 37° C. in the presence of 5% CO2 for about 3 weeks in DMEM medium (Gibco) containing penicillin (50 U/mL, SIGMA), streptomycin (50 mg/L, SIGMA), geneticin (200 mg/L, Nacalai Tesque, Inc., Japan) and 20% fetal bovine serum to obtain geneticin-resistant clones. Among these clones, clones stably expressing human SGLT1 or human SGLT2 were selected by the evaluating the sodium-dependent uptake activity of sugar (methyl-α-D-glucopyranoside).
4) Evaluation of Inhibitory Activity Against methyl-α-D-glucopyranoside uptake
Cell lines stably expressing human SGLT1 or human SGLT2 CHO were seeded in 96-well culture plates at a density of 30000 to 40000 cells/well and cultured for 4 to 6 days. The medium in these plates was removed and replaced by 150 μL/well pretreatment buffer (i.e., a buffer containing 140 mM choline chloride, 2 mM potassium chloride, 1 mM calcium chloride, 1 mM magnesium chloride, 10 mM 2-[4-(2-hydroxyethyl)-1-piperazinyl]ethanesulfonic acid and tris(hydroxymethyl)aminomethane, pH 7.4), and the plates were incubated at 37° C. for 20 minutes. The pretreatment buffer in the plates was removed, replaced by 50 μL/well fresh pretreatment buffer, and the plates were incubated at 37° C. for 20 minutes. Methyl-α-D-(U—^14C)glucopyranoside (6.3 mL, Amersham Pharmacia Biotech, 200 mCi/L) was added to and mixed with 100 mL buffer (i.e., a buffer containing 140 mM sodium chloride, 2 mM potassium chloride, 1 mM calcium chloride, 1 mM magnesium chloride, 1 mM methyl-α-D-glucopyranoside, 10 mM [4-(2-hydroxyethyl)-1-piperazinyl]ethanesulfonic acid and tris(hydroxymethyl)aminomethane, pH 7.4), which was used as uptake buffer. Test compounds were dissolved into uptake buffer and these test compound solutions were used for evaluating inhibitory activity. Uptake buffer without a test compound was used as a control solution. Moreover, for use in measuring baseline uptake in the absence of sodium, sodium-free solution was prepared in the same manner to contain 140 mM choline chloride instead of sodium chloride. The pretreatment buffer was removed from each well of the plates and replaced by 35 μL/well test compound solutions, control solution or sodium-free solution, and the plates were incubated at 37° C. for 45 minutes. […]

db/db mice = assay: Study for glucose lowering effect in db/db mouse; format: in vivo; conditions: Mus musculus, 6 hours
Method: Study for Glucose Lowering Effect in dB/dB Mouse
A study for glucose lowering effect was conducted using db/db mice (purchased from Clea Japan, Inc., male, 9 to 11 weeks old), type 2 diabetic model mice. On the day of the study, body weights and blood glucose levels were measured prior to the start of testing. Measurement of the blood glucose levels was performed using a simple blood glucose meter (manufactured by Bayer HealthCare, Dexter-Z II). The mice were allocated to some groups consisting of 5 mice each so that homogeneity of body weights or blood glucose levels among groups would be ensured. Blood collection was carried out by making an incision on the tip of the tail and taking the blood therefrom. On the day of the study, the test compounds were suspended in 0.5% carboxymethylcellulose solution (CMC solution), and the dosing solutions of which concentration was adjusted to either 0.3 mg/10 mL or 3 mg/10 mL were prepared. The dosing solutions were orally administered by gavage for mice in 10 mL/kg. To the control group, only a 0.5% CMC solution was orally administered in 10 mL/kg. Blood was collected prior to or sequentially after administration of test compounds by above method. The blood glucose levels were determined using a hexokinase method (AutoSera S GLU, manufactured by Daiichi Pure Chemicals Co., Ltd.). A percent reduction of blood glucose relative to control group at each time point after administration of test compounds was calculated by the following equation.
Percent reduction of blood glucose (%)={blood glucose level in the control group (mg/dL)-blood glucose level in the test compound group (mg/dL)}/blood glucose level in the control group (mg/dL)×100

[1] = po, 0.3 mg/kg administration, read-out: reduction of blood glucose 6 hours after administration

| SMILES | IC50 (human SGLT2) | inhibition in vivo at 0.3 mg/kg (db/db mice; [1]) | inhibition in vivo at 0.3 mg/kg (db/db mice; oral, 0.3 mg/kg, relative to control group, Table 3-1, read-out: Percent reduction of blood glucose (%) 6 hours after administration) |
| --- | --- | --- | --- |
| CCc1ccc(Cc2cc3c(cc2F)CO[C@]32O[C@H](CO)[C@@H](O)[C@H](O)[C@H]2O)cc1 [Example 16, (1S,3′R,4′S,5′S,6′R)-6-[(4-ethylphenyl)methyl]-5-fluoro-3′,4′,5′,6′-tetrahydro-6′-(hydroxymethyl)-spiro[isobenzofuran-1(3H),2′-[2H]pyran]-3′,4′,5′-triol] | 1.5 nM | ≥ 25% | – |
| CCOc1ccc(Cc2cc3c(cc2F)CO[C@]32O[C@H](CO)[C@@H](O)[C@H](O)[C@H]2O)cc1 [Example 17, (1S,3′R,4′S,5′S,6′R)-6-[(4-ethoxyphenyl)methyl]-5-fluoro-3′,4′,5′,6′-tetrahydro-6′-(hydroxymethyl)-spiro[isobenzofuran-1(3H),2′-[2H]pyran]-3′,4′,5′-triol] | 2.6 nM | – | 33% |
| Cc1ccc(Cc2cc3c(cc2F)CO[C@]32O[C@H](CO)[C@@H](O)[C@H](O)[C@H]2O)cc1 [Example 18, (1S,3′R,4′S,5′S,6′R)-5-fluoro-3′,4′,5′,6′-tetrahydro-6′-(hydroxymethyl)-6-[(4-methylphenyl)methyl]-spiro[isobenzofuran-1(3H),2′-[2H]pyran]-3′,4′,5′-triol] | 1.7 nM | ≥ 25% | – |
| CC(C)c1ccc(Cc2cc3c(cc2F)CO[C@]32O[C@H](CO)[C@@H](O)[C@H](O)[C@H]2O)cc1 [Example 19, (1S,3′R,4′S,5′S,6′R)-5-fluoro-3′,4′,5′,6′-tetrahydro-6′-(hydroxymethyl)-6-[(4-isopropylphenyl)methyl]-spiro[isobenzofuran-1(3H),2′-[2H]pyran]-3′,4′,5′-triol] | 2 nM | ≥ 25% | – |
| COc1ccc(Cc2cc3c(cc2F)CO[C@]32O[C@H](CO)[C@@H](O)[C@H](O)[C@H]2O)cc1 [Example 20, (1S,3′R,4′S,5′S,6′R)-5-fluoro-3′,4′,5′,6′-tetrahydro-6′-(hydroxymethyl)-6-[(4-methoxyphenyl)methyl]-spiro[isobenzofuran-1(3H),2′-[2H]pyran]-3′,4′,5′-triol] | 2.2 nM | ≥ 25% | – |
| Cc1cc2c(cc1Cc1ccc(CCF)cc1)[C@]1(OC2)O[C@H](CO)[C@@H](O)[C@H](O)[C@H]1O [Example 22, (1S,3′R,4′S,5′S,6′R)-6-[(4-(2-fluoroethyl)phenyl)methyl]-5-methyl-3′,4′,5′,6′-tetrahydro-6′-(hydroxymethyl)-spiro[isobenzofuran-1(3H),2′-[2H]pyran]-3′,4′,5′-triol] | 1.1 nM | ≥ 25% | – |
| COc1ccc(Cc2cc3c(cc2C)CO[C@]32O[C@H](CO)[C@@H](O)[C@H](O)[C@H]2O)cc1 [Example 23, (1S,3′R,4′S,5′S,6′R)-3′,4′,5′,6′-tetrahydro-6′-(hydroxymethyl)-6-[(4-methoxyphenyl)methyl]-5-methyl-spiro[isobenzofuran-1(3H),2′-[2H]pyran]-3′,4′,5′-triol] | 1.5 nM | ≥ 25% | – |
| CCOc1ccc(Cc2cc3c(cc2C)CO[C@]32O[C@H](CO)[C@@H](O)[C@H](O)[C@H]2O)cc1 [Example 24, (1S,3′R,4′S,5′S,6′R)-6-[(4-ethoxyphenyl)methyl]-3′,4′,5′,6′-tetrahydro-6′-(hydroxymethyl)-5-methyl-spiro[isobenzofuran-1(3H),2′-[2H]pyran]-3′,4′,5′-triol] | 1.8 nM | ≥ 25% | – |
| CCCc1ccc(Cc2cc3c(cc2C)CO[C@]32O[C@H](CO)[C@@H](O)[C@H](O)[C@H]2O)cc1 [Example 25, (1S,3′R,4′S,5′S,6′R)-3′,4′,5′,6′-tetrahydro-6′-(hydroxymethyl)-5-methyl-6-[(4-propylphenyl)methyl]-spiro[isobenzofuran-1(3H),2′-[2H]pyran]-3′,4′,5′-triol] | 2.3 nM | ≥ 25% | – |
| Cc1cc2c(cc1Cc1ccc(C(F)(F)F)cc1)[C@]1(OC2)O[C@H](CO)[C@@H](O)[C@H](O)[C@H]1O [Example 26, (1S,3′R,4′S,5′S,6′R)-6-[(4-trifluoromethylphenyl)methyl]-3′,4′,5′,6′-tetrahydro-6′-(hydroxymethyl)-5-methyl-spiro[isobenzofuran-1(3H),2′-[2H]pyran]-3′,4′,5′-triol] | 2.8 nM | ≥ 25% | – |
| Cc1cc2c(cc1Cc1ccc(OC(F)(F)F)cc1)[C@]1(OC2)O[C@H](CO)[C@@H](O)[C@H](O)[C@H]1O [Example 27, (1S,3′R,4′S,5′S,6′R)-6-[(4-trifluoromethoxyphenyl)methyl]-3′,4′,5′,6′-tetrahydro-6′-(hydroxymethyl)-5-methyl-spiro[isobenzofuran-1(3H),2′-[2H]pyran]-3′,4′,5′-triol] | 2.6 nM | ≥ 25% | – |
| OC[C@H]1O[C@]2(OCc3cc(Cl)c(Cc4cccs4)cc32)[C@H](O)[C@@H](O)[C@@H]1O [Example 30, (1S,3′R,4′S,5′S,6′R)-5-chloro-3′,4′,5′,6′-tetrahydro-6′-(hydroxymethyl)-6-[(thiophen-2-yl)methyl]-spiro[isobenzofuran-1(3H),2′-[2H]pyran]-3′,4′,5′-triol] | 1.3 nM | ≥ 25% | – |
